Measured values taken from the METLIN SMRT retention time set (Domingo-Almenara et al. 2019).

Assay: gradient 5% acetonitrile 3 min, to 50% in 2 min, to 85% in 15 min, held 3 min, 100 µL/min
Settings: column: Zorbax Extend-C18 2.1 x 50 mm; eluents: water / acetonitrile, 0.1% formic acid
Procedure, shortened: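 Values are retention times taken from adduct peaks that software picked and an analyst inspected. The pure standards were run as mixtures of ~100 molecules on HPLC linked to a quadrupole time-of-flight mass spectrometer, in positive and negative ionization mode. A Zorbax Extend-C18 column (2.1 × 50 mm, 1.8 μm) was used at 100 μL/min with water and acetonitrile, each including 0.1% formic acid.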

| RP-LC retention time | SMILES |
| --- | --- |
| 919 s | CCCn1ccc2sc(C)c(C(=O)NCc3ccc(SC)cc3)c2c1=O |
| 688 s | COc1ccc(NC(=O)C2CCCN2S(=O)(=O)c2ccc3c(c2)CCCC(=O)N3)cc1OC (stereo unspecified) |
| 747 s | Cc1nn(-c2ccc(Cl)cc2)c(C)c1S(=O)(=O)N1CCN(c2ccccn2)CC1 |
| 923 s | CCOC(=O)C1C(=O)C=C(c2ccc(OC)c(OC)c2)CC1c1cccc(OC)c1OC (stereo unspecified) |
| 599 s | Cc1nccn1C1CN(C(=O)C(C)Oc2ccccc2)C1 (stereo unspecified) |
| 1010 s | COc1ccc(Nc2nc(N3CCN(c4ncccn4)CC3)nc3c2C(=O)CCC3)cc1 |
| 845 s | COc1ccc(-c2nc(Cn3cnc4nc5c(cc4c3=O)CCCC5)c(C)o2)c(OC)c1 |
| 729 s | Cc1ccc(NC(=O)C2CCN(S(=O)(=O)c3c(C)[nH]c(C)c3C(=O)N3CCCC3)CC2)c(C)c1 |
| 837 s | O=C(NC1CCCC1)c1nc(-c2cn(-c3ccc(Cl)cc3)nn2)no1 |
| 721 s | COc1cc(C(=O)N2CCC3(CC2)NC(=O)c2ccc(Cl)cc2N3)cc(OC)c1OC |
| 861 s | COc1ccc(C(=O)NC2c3ccccc3-c3ccccc32)cc1OC |
| 718 s | CCn1nc(CNC(=O)c2cnccn2)c2ccccc21 |
| 859 s | Cc1cc(=O)n(CC(=O)Nc2cccc(Cl)c2)c(N2CCc3ccccc3C2)n1 |
| 643 s | O=C(CS(=O)Cc1cnn(-c2ccccc2)c1-n1cccc1)N1CCN(C2CCCCC2)CC1 (stereo unspecified) |
| 942 s | COc1ccc(NC(=O)c2cc(C)n3nccc3n2)cc1Cl |
| 694 s | Cc1cccc(NS(=O)(=O)c2cc3n(c2)CCN(C)C3=O)c1C |
| 961 s | COc1cccc(Nc2c(-c3ccc(Cl)cc3)nc3cnccn23)c1 |
| 758 s | CC(C)CC(=O)N1CCC(COc2ccc(C(=O)NC3CC3)cc2)CC1 |

| RP-LC retention time | SMILES |
| --- | --- |
| 689 s | CC1CCN(c2cc(C(=O)O)c3cc(NC(=O)c4ccc(Br)cc4)ccc3n2)CC1 |
| 752 s | CN1C(=O)C2(CCN(C(=O)Nc3ccc4c(c3)OCO4)C2)c2ccccc21 (stereo unspecified) |
| 1210 s | COc1cccc(OC(=O)c2cn(CC(C)C)c(=O)c3ccccc23)c1 |
| 936 s | Cc1nn2c(CNS(=O)(=O)c3ccc4c(c3)CCC4)c(-c3ccccc3)nc2s1 |
| 598 s | CC(=O)N1CCN(c2nc(C)cc(N3CCCCC3)n2)CC1 |
| 649 s | CN(C)C(=O)N1CCc2nn(Cc3ccccc3)c(=O)n2CC1 |
| 940 s | Cc1ccc(CNC(=O)c2nnc(-c3ccc(S(=O)(=O)N4CCCC4)cc3)o2)cc1 |
| 547 s | CCOC(=O)c1[nH]c(C)c(CCC(=O)NCCN2CCN(C)CC2)c1C |
| 1170 s | Cc1sc(-c2cc(C(F)(F)F)[nH]n2)cc1S(=O)(=O)N1CCN(c2ccccc2F)CC1 |
| 831 s | Cc1noc(-c2cc(=O)n(CC(=O)Nc3ccc4c(c3)OCO4)c3ccccc23)n1 |
| 554 s | O=C(CSc1ccc(-c2ccc(-n3ccnc3)cc2)nn1)NCc1ccco1 |
| 863 s | CCOC(=O)N1CCN(c2ncnc3c2cnn3-c2cc(Cl)ccc2C)CC1 |
| 710 s | O=C(NCCNS(=O)(=O)CCOc1ccc(F)cc1)c1ccc(NC(=O)C2CC2)cc1 |
| 585 s | O=C(Cn1c(CO)cnc1SCc1ccc(Cl)c(Cl)c1)NC1CC1 |
| 853 s | COc1ccc(OC)c(S(=O)(=O)N2CCC3(C2)C(=O)N(C)c2ccccc23)c1 (stereo unspecified) |
| 882 s | Cn1nc(-c2nnc(-c3ccc(F)cc3)o2)c2c1CCN(S(=O)(=O)c1cccc3cccnc13)C2 |
| 679 s | Cc1cc(C(F)(F)F)nc(Nc2nc(C)c3ccccc3n2)n1 |

| SMILES | RP-LC retention time |
| --- | --- |
| COc1ccc2c(c1)C1(CCN(C(=O)c3ccc(C)c(F)c3)C1)C(=O)N2C (stereo unspecified) | 610 s |
